Data as given in patent EP3900733A1, “SRC KINASE ACTIVATORS AND ENG FUNCTION INHIBITORS AS ENHANCERS OF SKIN HOMEOSTASIS/REGENERATION AND HAIR GROWTH” (Derma Innovate S.L., priority 2020, dated 2021).
Square brackets hold non-standard residues; d marks the D form. Ends that are not written are not given here. pY = N[C@@H](Cc1ccc(OP(=O)(O)O)cc1)C(=O)O

How the values were obtained:
Type in all cases: cell-based
[1] = system: mouse E14 embryonic stem cells; test: Cell proliferation (automated cell counting), with or without phototreatment; details: for enhancement of PT-induced cell proliferation: PT (mALA and red light) combined with YEEI phosphopeptide and/or S-Eng, 48 hours after irradiation
Experimental: (§1) E14 cell line is a derivative of mice embryonic stem cells (ES) obtained from the Inner Cell Mass of 129/Ola mouse strain blastocyst. E14 cells were grown on 0,1% gelatin-coated flasks in GMEM supplemented with 10% FCS tested for stem cells, 0.1 mM mixture of Non Essential Amino acids (NEAA, composed by Glycine, L-Alanine, L-Asparagine, L-Aspartic Acid, L-Glutamic acid, L-Proline and L-Serine), 2 mM L-Glutamine, 1 mM sodium pyruvate, 0.05 mM β-mercaptoethanol, Penicilin/Streptomicin (100 U/ml / 100 µg/ml) and 2.5 µg/ml amphotericin B (all from Gibco) and 1,000 U/ml LIF (Millipore), and splitted 1:8 to 1:10 every 2-3 days using Trypsin-EDTA (Invitrogen) (Smith, 1991; Cambray et al, 2012). Cells were maintained at 37°C in a 5% CO2 humidified atmosphere. The medium was changed on alternative days.
Endogenous protoporphyrin IX (PpIX)-dependent photodynamic treatments (PT) were routinely performed on exponentially growing cells at 60% of confluence, as well as in ex vivo cultured hair follicles (HF) (Carrasco E et al. Methods 15:109, 2016; Calvo-Sanchez MI et al. Sci. Rep.9:4509, 2019). […] Additionally, total controls in strict dark conditions (no PpIX precursor, no light) were evaluated for each biological model, although this control was not routinely used in experimental series since ambient light is an unavoidable contaminant, and the light control is the most adequate in this experimental design.
(§2) Here the functional activation of the cSrc kinase has been specifically associated with the phosphorilation of the Tyr419 residue (or equivalent) of the cSrc protein (Espada J and Martin-Perez J. Int Rev Cell Mol Biol 331:82, 2017). […] The biological activity of each YEEI phosphopeptide batch was evaluated by immunoblot detection of cSrc-Tyr419 levels in protein extracts obtained from treated cell cultures (see Figure 1) […]

[2] = system: human primary skin fibroblasts; test: as above; details: for enhancement of PT-induced cell proliferation: human primary fibroblasts, 48 hours after irradiation
Experimental: Primary cultures of human fibroblasts were obtained from normal human skin. Collection of skin biopsy punches, 4mm diameter, from volunteer donors was routinely performed in the Dermatology Service of the Ramon y Cajal University Hospital, Madrid, Spain, following the regulations of the hospital ethics committee for human research, eligible patients providing written informed consent.
Skin samples were transferred to the laboratory and maintained at 4 °C in DMEM medium (Gibco) with 10x Penicilin/Streptomycin and 10x Aphotericin B until processed, not exceeding 24h. Then, the subcutaneous layer was removed using scalpels, and skin biopsies were cut in small pieces of 1-4 mm^2. In order to obtain primary fibroblasts, skin pieces were incubated in 1mg/ml of collagenase A enzyme (Roche) solution for 4 hours at 37 °C, in mild agitation in order to help cell dissociation.
The supernatant containing the fibroblasts was vigorously pipetted and diluted in DMEM medium supplemented with 10% FCS, 2 mM L-Glutamine, Penicilin/Streptomicin (100 U/ml / 100 µg/ml) and 2.5 µg/ml amphotericin B and centrifuged for five minutes at 1500 RPM. The pellet was resuspended in complete DMEM medium and the fibroblasts were seeded in a maximum density of 1 million cells per ml using a 24 well plate and routinely grown at 37°C in a humidified atmosphere containing CO2 5%. 24 hours later, medium was removed to eliminate all detached cells. The cells were passaged when they reached 70-80% confluency, in order to prevent differentiation. The primary culture reached appropriate confluence after 8 to 10 days, and the derivative subcultures were splitted 1:4 once a week. After 10 to 20 passages, cells undergo senescence.
Endogenous protoporphyrin IX (PpIX)-dependent photodynamic treatments (PT) were routinely performed on exponentially growing cells at 60% of confluence, as well as in ex vivo cultured hair follicles (HF) (Carrasco E et al. Methods 15:109, 2016; Calvo-Sanchez MI et al. Sci. Rep.9:4509, 2019). To that end, cells and HFs were incubated for 2-4 hours, normally 2 hours, with 0.1 mM of a PpIX metabolic precursor (typically, aminolevulinic acid ALA, or the ALA methylated derivative methyl aminolevulinate mALA) in the corresponding medium in the absence of serum or growth factors. Immediately, approximately 1 minute, after the incubation step the samples were further irradiated 2-15 min, normally between 8 and 10 minutes, with a red-light emitting diode source with an emission peak at 634 nm bandwidth, with a total light dose of 2-10 J/cm^2, normally 4 J/cm^2 (Carrasco E et al. Methods 15:109, 2016; Calvo-Sanchez MI et al. Sci. Rep.9:4509, 2019). Immediately after irradiation, approx. 1 minute after, samples were washed in PBS, fresh medium was added, and were further routinely grown at 37°C in a humidified atmosphere containing CO2 5%. When required, activators of cSrc kinase or inhibitors of Eng function (see below) were added, alone or in combination, in the fresh medium used immediately after irradiation, and samples were subsequently incubated for the indicated times. […] Additionally, total controls in strict dark conditions (no PpIX precursor, no light) were evaluated for each biological model, although this control was not routinely used in experimental series since ambient light is an unavoidable contaminant, and the light control is the most adequate in this experimental design. […]

[3] = system: ex vivo grown human hair follicles; test: Activation of ex vivo cultured hair follicles (hair bulb area image analysis, histology, Ki67); details: for proliferation and differentiation of the hair bulb area (hair follicle activation): combination of PT (mALA and red light), 24 hours after treatments
Experimental: Human hair follicles were obtained from human scalp samples taken from the occipital skin of volunteer donors during a hair transplant procedure. Eligible patients provided written informed consent, and the Ethical committee of the Ramon y Cajal Hospital approved this procedure.
Follicular units (FUs) were dissected using scalpels under a magnifier, and the ones in resting phase (telogen) were selected. Those FUs were transferred to the laboratory and maintained at 4 °C until processed in Williams' medium E (Sigma) supplemented with 10x Penicilin/Streptomycin, 10x Aphotericin B, and 2 mM L-Glutamin (all from Gibco), 5 µg/ml Insulin, 5 µg/ml transferring, 20 pM T3 hormone, 0.083 µg/ml cholera toxin and 0.4 µg/ml hydrocortisone. FUs can be stored in complete Williams' medium at 4 °C for approximately 5 days without significant loss of the mini organ function. FU cultures were maintained at 37°C in a 5% CO2 humidified atmosphere.
Endogenous protoporphyrin IX (PpIX)-dependent photodynamic treatments (PT) were routinely performed on exponentially growing cells at 60% of confluence, as well as in ex vivo cultured hair follicles (HF) (Carrasco E et al. Methods 15:109, 2016; Calvo-Sanchez MI et al. Sci. Rep.9:4509, 2019). To that end, cells and HFs were incubated for 2-4 hours, normally 2 hours, with 0.1 mM of a PpIX metabolic precursor (typically, aminolevulinic acid ALA, or the ALA methylated derivative methyl aminolevulinate mALA) in the corresponding medium in the absence of serum or growth factors. Immediately, approximately 1 minute, after the incubation step the samples were further irradiated 2-15 min, normally between 8 and 10 minutes, with a red-light emitting diode source with an emission peak at 634 nm bandwidth, with a total light dose of 2-10 J/cm^2, normally 4 J/cm^2 (Carrasco E et al. Methods 15:109, 2016; Calvo-Sanchez MI et al. Sci. Rep.9:4509, 2019). […] Additionally, total controls in strict dark conditions (no PpIX precursor, no light) were evaluated for each biological model, although this control was not routinely used in experimental series since ambient light is an unavoidable contaminant, and the light control is the most adequate in this experimental design.
For the quantification of the number of cells in cell cultures after different treatments, a Bio-Rad TC20™ automated cell counter was used following the instructions of the manufacturer. […] Image acquisition was performed using a Nikon Eclipse Ci LED-fluorescence microscope using a 2x objective and a 0.55x Reduction Lens adapter coupled to a Jenoptik PROGRES GRYPHAX® SUBRA Super HD camera and suited Version 1.1.8.153 image software pack. […] Total hair bulb area in high resolution images of whole hair follicles was spotted and quantified using suited free FIJI software packs (https://fiji.sc/). […]

[4] = system: cSrc kinase; test: cSrc Tyr419 phosphorylation by immunoblot in treated cell cultures; details: mouse E14 embryonic stem cells; peptide 100 nM; Figure 1A
Experimental: as §1, §2

| Compound | induction of cell proliferation ([1]; 48 hours after treatments, peptide alone, Figure 1B) | enhancement of PT-induced cell proliferation ([1]; Figure 3) | enhancement of PT-induced cell proliferation ([1]; Figure 3, listed as YEEI peptide) | enhancement of PT-induced cell proliferation ([2]; PT (mALA and red light) combined with YEEI phosphopeptide and/or Apt1 or Apt2, Figure 5) | enhancement of PT-induced cell proliferation ([2]; PT (mALA and red light) combined with YEEI phosphopeptide and/or Apt1 or Apt2, Figure 5, listed as YEEI peptide) | enhancement of PT-induced cell proliferation ([2]; PT (mALA and red light) combined with YEEI phosphopeptide and/or siRNA of SEQ ID NO 2, Figure 4) | enhancement of PT-induced cell proliferation ([2]; PT (mALA and red light) combined with YEEI phosphopeptide and/or siRNA of SEQ ID NO 2, Figure 4, listed as YEEI peptide) | induction of cell proliferation ([2]; human primary skin fibroblasts, 48 hours after treatments, peptide alone, Figure 1B) | proliferation and differentiation of the hair bulb area (hair follicle activation) ([3]; YEEI phosphopeptide and Apt1 or Apt2, Figure 9) | proliferation and differentiation of the hair bulb area (hair follicle activation) ([3]; YEEI phosphopeptide and siRNA of SEQ ID NO 2, Figure 8) | Tyr419 cSRC phosphorilation [4] | time after PT at which HF activation is evident ([3]; PT using mALA and red light, compared to control, Figure 6) [days] | time after treatment at which activation occurs ([3]; photodynamic treatment with mALA and red light, Figures 6 and 7) |
| --- | --- | --- | --- | --- | --- | --- | --- | --- | --- | --- | --- | --- | --- |
| Glu-Pro-Gln-Tyr(PO3H2)-Glu-Glu-Ile-Pro-Ile-Tyr-Leu (EPQ[pY]EEIPIYL) [YEEI phosphopeptide] | statistically significant induction | significantly enhanced | markedly enhanced | significantly enhanced | markedly increased | significantly enhanced | markedly increased | statistically significant induction | significantly promotes | significantly promotes | induced | – | – |
| COC(=O)CCC(=O)CN [mALA, methyl aminolevulinate] | – | – | – | – | – | – | – | – | – | – | – | 5 | approximately 5 days |
